Assay [1] concerns the target GDP-KRASG12C::SOS1 (Homo sapiens, UniProt P01116, C118S/C51S/C80L/G12C). Kind of assay: Alpha Screen PPI assay. In kind it is biochemical. Conditions: for IC50: Alpha Screen, duplicate. The method, then: 221 Measurements of various protein–protein interactions were performed using the Alpha
222 Screen technology developed by Perkin Elmer. Recombinant RAS proteins (H-, N-, K-
223 RAS variants; all KRAS variants are based on KRAS isoform 4B (uniprot id P01116-2);
224 KRAS (G12D) 1-169, N-terminal 6His-tag, C-terminal avi-tag was from Xtal
225 BioStructures, Inc., KRAS (G12C) 1-169, C-terminal avi-tag, biotinylated, mutations:
226 C51S, C80L, C118S, NRAS(wt) 1-172, C-terminal avi-tag, biotinylated; HRAS(wt) 1-
227 166, C-terminal avi-tag, biotinylated). Biotinylation was performed in vitro with
228 recombinant BirA biotin-protein ligase as recommended by the manufacturer (Avidity
229 LLC, Aurora, Colorado, USA). Interacting proteins such as SOS1 (564-1049, N-terminal
230 GST-tag, TEV cleavage site), cRaf (1-303, N-terminal GST-tag, TEV cleavage site) and
231 PI3KA- RBD (160-317, N-term-HIS_GST-tag) were expressed as glutathione S
232 transferase (GST) fusions. Accordingly, the Alpha Screen beads were glutathione coated
233 Alpha Lisa acceptor beads (Perkin Elmer AL 109 R) and Alpha Screen Streptavidin
234 conjugated donor beads (Perkin Elmer 6760002L). Nucleotides were purchased from
236 interaction assays were carried out in PBS, containing 0.1% bovine serum albumin,
237 0,05% Tween-20 and 10 µM of the corresponding nucleotide. Assays were carried out in
238 white ProxiPlate-384 Plus plates (Perkin Elmer #6008280) in a final volume of 20 µL. In
239 brief, biotinylated RAS proteins (10 nM final concentration) and GST-SOS1, GST-PI3K
240 or GST-CRAF (10 nM final) were mixed with glutathione acceptor beads (5 µg/mL final
241 concentration) in buffer, containing the corresponding nucleotides (GDP or GTP for
242 assays containing SOS1, only GTP for interaction assays containing PI3K or CRAF) and
243 were incubated for 30 min at room temperature. After addition of streptavidin donor
244 beads (5 µg/mL final concentration) under green light, the mixture was further incubated
245 for 60 min in the dark at room temperature. Single oxygen induced fluorescence was
246 measured at an Enspire multimode plate reader (Perkin Elmer) according to the
247 manufacturer’s recommendations. […]

The target of assay [2] is GCP-HRASwt (Homo sapiens, UniProt P01112). Kind of assay: ITC. It counts as binding. The settings on record: 25°C. The method, then: (§1) 80 difference spectrum. Mixtures of four fragments (each at 250 µM) were incubated in 25
(§2) 82 a mixture of GCP-KRASG12D and GDP-KRASG12V (each 4 µM). Binders were identified
(§3) 83 by comparing pre-recorded reference spectra with the STD difference spectrum.
(§4) 84 Deconvolution and confirmation of primary FBS hits obtained from STD-NMR and
(§5) 85 MST was performed using 2D 1H/15N TROSY NMR experiments(2) collected on a
(§6) 86 Bruker Avance III 600 MHz spectrometer equipped with a 5 mm z-gradient TCI cryo-
(§7) 87 probe. Samples were prepared directly before data acquisition using a Tecan Freedom
(§8) 88 Evo pipetting system and delivered by a Bruker Sample Rail to the magnet. Each sample
(§9) 89 contained either 50 µM 15N labeled GDP-KRASG12D or GCP-KRASG12D in 25 mM Tris-
(§10) 90 d11, 100 mM NaCl, 2 mM MgCl2, 0.5 mM TCEP pH 7.4 and 8% (v/v) D2O. Proteins
(§11) 91 were incubated with 500 µM fragment in a 2.5 mm NMR tube at 298K and 1%
(§12) 92 d6DMSO. Spectra were recorded with 32 transients and 64 data points in the indirect
(§13) 93 dimension. Processing and analysis were accomplished with Topspin 3.0 (Bruker
(§14) 94 BioSpin). Binders were identified by manual comparison of spectra in the presence of a
(§15) 95 fragment and the respective reference spectrum. All confirmed binders to 15N labeled
(§16) 96 GDP-KRASG12D show also chemical shift perturbations in the presence of 15N labeled
(§17) 97 GDP-KRASG12V and are therefore non-selective.
(§18) 98 Measurement of dissociation constants KD for the compounds synthesized. NMR
(§19) 99 was initially the only method that could provide K Ds for the weakly binding molecules to
(§20) 100 support compound optimization. 1H/15N SoFast HMQC experiments(3) were recorded in
(§21) 101 3mm NMR tubes (170µL filling) at a protein concentration of 70-100µM. Spectra were
(§22) 102 recorded on a Avance III 700MHz spectrometer equipped with a cryogenically cooled
(§23) 103 5mm TCI probe and 48 scans, 128 f1 increments and 2k data points in f2. Total
(§24) 104 acquisition time was 22 minutes. 4 – 6 titration points were performed w ith individual
(§25) 105 samples for each titration point made from 50mM DMSO -d6 stock solutions. Total
(§26) 106 DMSO-d6 concentration was kept constant by backfilling every sample to a total of 4%
(§27) 107 DMSO. KDs were calculated from the differences in chemical shift induced by t he small
(§28) 108 molecules upon interacting with the protein. Average chemical shifts from the 1H and 15N
(§29) 109 dimension were calculated according to the following equation:
(§30) 110 ∆δobs = √[δH2 + (α ∙δN)2] with α set to 0.14
(§31) 111 The Δδobs values at the respective ligand concentrations and the total concentration
(§32) 112 of protein allow a fit to the KD value of the ligand as long as it is binding under fast
(§33) 113 exchange conditions as was the case for most of the compounds tested.(4) Usually Δδobs
(§34) 115 following equation was used to determine the individual KDs:
(§35) 116 ∆δobs = ∆δmax [([P]t + [L]t + KD) − [([P]t + [L]t + KD)2 − 4([P]t[L]t)]1/2]/2[P]t
(§36) 119 Calorimetric experiments were performed on a Microcal PEAQ-ITC calorimeter
(§37) 120 (MicroCalTM, LLC Northampton, MA). Protein solutions were measured in 20 mM
(§38) 121 HEPES, 150 mM NaCl, 3% DMSO, pH 7.5. All measurements were carried out at 25°C.
(§39) 122 Titrations were performed in inverse mode. The cell was loaded with compound solutions
(§40) 123 in the range of 10 to 100 µM. All injections were performed using an initial injection of
(§41) 124 0.5 μL followed by 19 injections of 2 μL of protein in the range of 130-500 µM. The data
(§42) 125 were analyzed with the MicroCal PEAQ-ITC analysis software package. The first data
(§43) 126 point was excluded from the analysis. Thermodynamic parameters were calculated (ΔG =
(§44) 127 ΔH - TΔS = -RTlnKB, where ΔG, ΔH and ΔS are the changes in free energy, enthalpy and
(§45) 128 entropy of binding, respectively).
(§46) 130 Protein purification, nucleotide exchange and crystallization
(§47) 131 The KRAS construct, based on uniprot identifier P01116 -2 (KRAS4-B) amino acids
(§48) 134 G12V) were expressed with an N-terminal His6-tag followed by a TEV (tobacco etch

In assay [3] the target is GCP-NRASwt (Homo sapiens, UniProt P01111, C118S). In words: ITC. In kind it is binding. The settings on record: 25°C. The procedure:
as §1, §2, §3, §4, §5, §6, §7, §8, §9, §10, §11, §12, §13, §14, §15, §16, §17, §18, §19, §20, §21, §22, §23, §24, §25, §26, §27, §28, §29, §30, §31, §32, §33, §34, §35, §36, §37, §38, §39, §40, §41, §42, §43, §44, §45, §46, §47, §48

In assay [4] the target is GDP-KRASG12D (Homo sapiens, UniProt P01116, G12D). In words: ITC. It counts as binding. Conditions: 25°C. The method, then:
as §1, §2, §3, §4, §5, §6, §7, §8, §9, §10, §11, §12, §13, §14, §15, §16, §17, §18, §19, §20, §21, §22, §23, §24, §25, §26, §27, §28, §29, §30, §31, §32, §33, §34, §35, §36, §37, §38, §39, §40, §41, §42, §43, §44, §45, §46, §47, §48

GCP-HRASwt, sequence (P01112 1-166): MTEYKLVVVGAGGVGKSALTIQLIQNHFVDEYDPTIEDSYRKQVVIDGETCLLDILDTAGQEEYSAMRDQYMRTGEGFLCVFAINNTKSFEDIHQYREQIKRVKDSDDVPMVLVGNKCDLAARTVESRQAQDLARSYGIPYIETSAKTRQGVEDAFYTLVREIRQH
GCP-NRASwt, sequence (P01111 1-172 C118S): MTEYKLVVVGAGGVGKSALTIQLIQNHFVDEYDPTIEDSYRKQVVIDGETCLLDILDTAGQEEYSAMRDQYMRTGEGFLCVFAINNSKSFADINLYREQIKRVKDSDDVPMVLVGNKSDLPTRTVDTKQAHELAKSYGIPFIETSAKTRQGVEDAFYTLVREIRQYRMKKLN

Take `C=CC(=O)N1CCN(c2ncnc3c(F)c(-c4c(O)cccc4F)c(Cl)cc23)CC1` [ARS-1620, reference compound]: in assay [1], the “activity on the GDP-dependent KRAS^G12C::SOS1 interaction” value was “displayed activity” and half-maximal inhibition (IC50) was put at 590 nM.
With `Cn1cnc(Cn2ccc3ccc(CNCc4[nH]c5ccccc5c4[C@H]4NC(=O)c5ccc(O)cc54)cc32)c1` [Compound 1], the Kd (as a rule, the constant that tells how readily two partners part at equilibrium) was 0.57 µM in assay [2], 1.3 µM in assay [3] and 2 µM in assay [4]. Further, the 50% inhibitory concentration (IC50) (usually the midpoint of a concentration-inhibition curve) in assay [1] is 450 nM.
In the case of `CN(C)Cc1[nH]c2ccccc2c1[C@H]1NC(=O)c2ccc(O)cc21` [Compound 18], the Kd in assay [2] was 6.7 µM; in assay [3], 33 µM; in assay [4], 29 µM.
